Source: patent US20070149535A1, “Protein kinase inhibitors” (ONCALIS AG, priority 2004, published 2007)

molecular target: T1, KIT (Homo sapiens, UniProt P10721); assay: Yeast growth assay, specificity profiling; format: cell-based; design: key: “−” indicates no growth restoration i.e. no activity against the particular kinase; “+”, “++”, and “+++” indicate activity detected by restoration of growth, classified into three categories of potency; “+”, “++”, and “+++” indicate activity detected by restoration of growth, classified into three categories of potency; “+”, “++”, and “+++” indicate activity detected by restoration of growth, classified into three categories of potency; conditions: 7 concentrations between 0.2 and 100 μM
T1 construct: expressed in transfected cells; host or cells: yeast
Outline: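 Yeast carrying the human RTK are shifted from glucose to galactose medium, inducing kinase expression that suppresses growth; inhibitors restore growth. Compounds are tested at 7 concentrations from 0.2 to 100 μM. Activity is scored −/+/++/+++ from the maximal growth restoration and the concentration at which it is reached.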

T1 sequence (P10721 26-976): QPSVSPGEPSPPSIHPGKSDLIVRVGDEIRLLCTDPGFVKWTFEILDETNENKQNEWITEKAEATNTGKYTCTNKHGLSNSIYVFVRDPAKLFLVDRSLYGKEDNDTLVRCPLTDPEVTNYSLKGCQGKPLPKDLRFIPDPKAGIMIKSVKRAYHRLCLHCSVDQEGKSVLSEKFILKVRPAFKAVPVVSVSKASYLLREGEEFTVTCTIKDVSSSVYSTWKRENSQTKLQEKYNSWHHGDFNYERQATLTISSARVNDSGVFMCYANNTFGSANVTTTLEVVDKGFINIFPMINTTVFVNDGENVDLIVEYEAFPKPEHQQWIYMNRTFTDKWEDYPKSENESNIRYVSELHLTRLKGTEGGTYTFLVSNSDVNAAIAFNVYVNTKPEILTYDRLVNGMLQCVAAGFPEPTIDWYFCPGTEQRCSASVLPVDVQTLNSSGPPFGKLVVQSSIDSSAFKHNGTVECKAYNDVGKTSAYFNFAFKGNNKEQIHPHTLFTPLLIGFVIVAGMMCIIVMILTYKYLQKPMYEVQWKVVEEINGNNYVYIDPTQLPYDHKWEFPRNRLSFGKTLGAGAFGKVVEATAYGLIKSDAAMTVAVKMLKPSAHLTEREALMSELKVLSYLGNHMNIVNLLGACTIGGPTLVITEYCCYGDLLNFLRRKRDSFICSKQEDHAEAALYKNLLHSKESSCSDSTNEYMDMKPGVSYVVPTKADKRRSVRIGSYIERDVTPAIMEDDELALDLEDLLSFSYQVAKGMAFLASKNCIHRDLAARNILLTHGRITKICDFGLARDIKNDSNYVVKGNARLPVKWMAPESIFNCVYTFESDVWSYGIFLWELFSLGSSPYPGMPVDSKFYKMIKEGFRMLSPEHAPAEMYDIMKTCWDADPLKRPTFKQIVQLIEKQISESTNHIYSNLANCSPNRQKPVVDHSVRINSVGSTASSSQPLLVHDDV

Row | SMILES | KIT growth restoration
1 | Clc1ccc(Nc2c(-c3ccccc3)nc3cnccn23)cc1 [compound 16, (4-Chloro-phenyl)-(2-phenyl-imidazo[1,2-a]pyrazin-3-yl)-amine] | −
2 | Cc1nccn2c(Nc3ccc(F)c(F)c3)c(-c3ccccc3)nc12 [compound 45, (3,4-Difluoro-phenyl)-(8-methyl-2-phenyl-imidazo[1,2-a]pyrazin-3-yl)-amine] | −
3 | Cc1cccc(Nc2c(-c3ccccc3)nc3cnccn23)c1 [compound 34, (2-Phenyl-imidazo[1,2-a]pyrazin-3-yl)-m-tolyl-amine] | −
4 | Clc1cccc(Nc2c(-c3ccccc3)nc3cnccn23)c1 [compound 35, (3-Chloro-phenyl)-(2-phenyl-imidazo[1,2-a]pyrazin-3-yl)-amine] | −
5 | Cc1nccn2c(Nc3cccc(Cl)c3)c(-c3ccccc3)nc12 [compound 3, (3-Chloro-phenyl)-(8-methyl-2-phenyl-imidazo[1,2-a]pyrazin-3-yl)-amine] | −
6 | COc1cccc(-c2nc3cnccn3c2Nc2cccc(Cl)c2)c1 [compound 7, (3-Chloro-phenyl)-[2-(3-methoxy-phenyl)-imidazo[1,2-a]pyrazin-3-yl]-amine] | −
7 | Brc1cccc(Nc2c(-c3ccccc3)nc3cnccn23)c1 [compound 14, (3-Bromo-phenyl)-(2-phenyl-imidazo[1,2-a]pyrazin-3-yl)-amine] | −
8 | c1ccc(Nc2c(-c3ccccc3)nc3cnccn23)cc1 [compound 23, Phenyl-(2-phenyl-imidazo[1,2-a]pyrazin-3-yl)-amine] | −
9 | Cc1cccc(Nc2c(-c3ccccc3)nc3c(C)nccn23)c1 [compound 43, (8-Methyl-2-phenyl-imidazo[1,2-a]pyrazin-3-yl)-m-tolyl-amine] | −
10 | Cc1nccn2c(Nc3ccccc3)c(-c3ccccc3)nc12 [compound 39, (8-Methyl-2-phenyl-imidazo[1,2-a]pyrazin-3-yl)-phenyl-amine] | −
11 | Cc1nccn2c(Nc3cccc(F)c3)c(-c3ccccc3)nc12 [compound 44, (3-Fluoro-phenyl)-(8-methyl-2-phenyl-imidazo[1,2-a]pyrazin-3-yl)-amine] | −
